According to PMC6407917, “Identification of GSK3186899/DDD853651 as a Preclinical Development Candidate for the Treatment of Visceral Leishmaniasis” (Journal of Medicinal Chemistry, 2018):

How the values were obtained:
Test in all cases: biochemical
Design in all cases: species or system HEK293/K-562/placenta mixed human extract; Kinobeads chemoproteomic competition binding, quantified by TMT LC-MS/MS, dose response up to 20 uM
CDC7 = CDC7 (Homo sapiens, UniProt O00311)
PTK2 = PTK2 (Homo sapiens, UniProt Q05397)
PRKCQ = PRKCQ (Homo sapiens, UniProt Q04759)
PRKCI = PRKCI (Homo sapiens, UniProt P41743)
TTK = TTK (Homo sapiens, UniProt P33981)
BRSK2 = BRSK2 (Homo sapiens, UniProt Q8IWQ3)
CDK9 = CDK9 (Homo sapiens, UniProt P50750)
TNIK = TNIK (Homo sapiens, UniProt Q9UKE5)
RIPK2 = RIPK2 (Homo sapiens, UniProt O43353)
MKNK1 = MKNK1 (Homo sapiens, UniProt Q9BUB5)
MAP4K2 = MAP4K2 (Homo sapiens, UniProt Q12851)
MAPKAPK3 = MAPKAPK3 (Homo sapiens, UniProt Q16644)
LIMK1 = LIMK1 (Homo sapiens, UniProt P53667)
RPS6KA3 = RPS6KA3 (Homo sapiens, UniProt P51812)
SIK2 = SIK2 (Homo sapiens, UniProt Q9H0K1)
CAMK2B = CAMK2B (Homo sapiens, UniProt Q13554)
FRK = FRK (Homo sapiens, UniProt P42685)
GSK3B = GSK3B (Homo sapiens, UniProt P49841)
ADCK1 = ADCK1 (Homo sapiens, UniProt Q86TW2)
CSNK2A1 = CSNK2A1 (Homo sapiens, UniProt P68400)
TESK2 = TESK2 (Homo sapiens, UniProt Q96S53)
Chain of TESK2 (Q96S53 whole entry): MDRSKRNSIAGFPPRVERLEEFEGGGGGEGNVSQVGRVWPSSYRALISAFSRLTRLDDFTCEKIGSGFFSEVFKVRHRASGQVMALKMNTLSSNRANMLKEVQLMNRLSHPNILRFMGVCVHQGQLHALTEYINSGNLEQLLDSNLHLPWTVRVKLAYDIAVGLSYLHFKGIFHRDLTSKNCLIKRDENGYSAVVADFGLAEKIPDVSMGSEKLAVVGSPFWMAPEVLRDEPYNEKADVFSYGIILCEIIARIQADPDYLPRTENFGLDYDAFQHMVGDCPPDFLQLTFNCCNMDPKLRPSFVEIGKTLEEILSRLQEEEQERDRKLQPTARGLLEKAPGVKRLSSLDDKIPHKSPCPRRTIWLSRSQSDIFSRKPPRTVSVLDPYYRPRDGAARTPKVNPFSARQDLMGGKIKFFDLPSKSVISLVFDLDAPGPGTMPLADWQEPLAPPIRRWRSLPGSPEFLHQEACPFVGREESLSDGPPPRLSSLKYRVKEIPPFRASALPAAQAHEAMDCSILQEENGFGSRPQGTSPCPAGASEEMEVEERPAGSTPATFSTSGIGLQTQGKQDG

Chain of ADCK1 (Q86TW2 whole entry): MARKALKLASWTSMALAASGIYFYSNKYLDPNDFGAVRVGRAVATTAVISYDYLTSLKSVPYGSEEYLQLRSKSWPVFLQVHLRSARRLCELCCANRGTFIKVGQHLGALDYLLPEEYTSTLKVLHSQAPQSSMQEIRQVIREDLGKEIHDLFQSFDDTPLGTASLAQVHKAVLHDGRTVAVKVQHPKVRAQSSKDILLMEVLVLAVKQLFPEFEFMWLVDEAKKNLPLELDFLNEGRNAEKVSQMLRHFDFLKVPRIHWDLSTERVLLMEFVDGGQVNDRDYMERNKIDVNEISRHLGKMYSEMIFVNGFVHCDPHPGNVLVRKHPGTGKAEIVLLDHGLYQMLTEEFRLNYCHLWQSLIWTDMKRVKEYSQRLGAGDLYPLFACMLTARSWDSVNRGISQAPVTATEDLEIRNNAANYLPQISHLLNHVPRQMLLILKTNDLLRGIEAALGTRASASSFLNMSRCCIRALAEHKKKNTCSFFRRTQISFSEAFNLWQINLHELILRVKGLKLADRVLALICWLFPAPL
Chain of RIPK2 (O43353 whole entry): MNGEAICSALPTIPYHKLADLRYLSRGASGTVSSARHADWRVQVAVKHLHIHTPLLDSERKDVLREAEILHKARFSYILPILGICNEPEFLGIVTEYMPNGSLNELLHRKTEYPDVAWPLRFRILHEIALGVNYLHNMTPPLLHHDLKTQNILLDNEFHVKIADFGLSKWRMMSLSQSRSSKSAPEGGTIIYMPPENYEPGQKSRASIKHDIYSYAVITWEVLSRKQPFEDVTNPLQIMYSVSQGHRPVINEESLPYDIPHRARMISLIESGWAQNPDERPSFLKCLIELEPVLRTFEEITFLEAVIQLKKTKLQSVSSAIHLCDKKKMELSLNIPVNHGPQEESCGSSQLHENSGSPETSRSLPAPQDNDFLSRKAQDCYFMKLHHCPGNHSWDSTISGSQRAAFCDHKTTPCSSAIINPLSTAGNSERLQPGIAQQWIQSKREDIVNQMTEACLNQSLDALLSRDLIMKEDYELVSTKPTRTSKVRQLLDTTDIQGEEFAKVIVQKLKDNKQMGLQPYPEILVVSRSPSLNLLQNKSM
Chain of FRK (P42685 whole entry): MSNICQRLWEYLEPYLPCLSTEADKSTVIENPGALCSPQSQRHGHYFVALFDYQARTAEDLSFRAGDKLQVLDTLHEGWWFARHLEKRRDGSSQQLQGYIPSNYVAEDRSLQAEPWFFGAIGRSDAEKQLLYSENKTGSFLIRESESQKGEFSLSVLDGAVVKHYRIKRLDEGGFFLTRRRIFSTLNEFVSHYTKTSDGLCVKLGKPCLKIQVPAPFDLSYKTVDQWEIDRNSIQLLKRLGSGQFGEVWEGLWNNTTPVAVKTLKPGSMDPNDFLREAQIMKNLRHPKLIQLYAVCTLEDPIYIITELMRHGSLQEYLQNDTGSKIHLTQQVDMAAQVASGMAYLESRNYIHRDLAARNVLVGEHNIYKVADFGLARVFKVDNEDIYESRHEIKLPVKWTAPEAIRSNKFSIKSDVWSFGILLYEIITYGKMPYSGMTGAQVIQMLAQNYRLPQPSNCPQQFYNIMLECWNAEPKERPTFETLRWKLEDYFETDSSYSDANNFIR
Chain of MAP4K2 (Q12851 whole entry): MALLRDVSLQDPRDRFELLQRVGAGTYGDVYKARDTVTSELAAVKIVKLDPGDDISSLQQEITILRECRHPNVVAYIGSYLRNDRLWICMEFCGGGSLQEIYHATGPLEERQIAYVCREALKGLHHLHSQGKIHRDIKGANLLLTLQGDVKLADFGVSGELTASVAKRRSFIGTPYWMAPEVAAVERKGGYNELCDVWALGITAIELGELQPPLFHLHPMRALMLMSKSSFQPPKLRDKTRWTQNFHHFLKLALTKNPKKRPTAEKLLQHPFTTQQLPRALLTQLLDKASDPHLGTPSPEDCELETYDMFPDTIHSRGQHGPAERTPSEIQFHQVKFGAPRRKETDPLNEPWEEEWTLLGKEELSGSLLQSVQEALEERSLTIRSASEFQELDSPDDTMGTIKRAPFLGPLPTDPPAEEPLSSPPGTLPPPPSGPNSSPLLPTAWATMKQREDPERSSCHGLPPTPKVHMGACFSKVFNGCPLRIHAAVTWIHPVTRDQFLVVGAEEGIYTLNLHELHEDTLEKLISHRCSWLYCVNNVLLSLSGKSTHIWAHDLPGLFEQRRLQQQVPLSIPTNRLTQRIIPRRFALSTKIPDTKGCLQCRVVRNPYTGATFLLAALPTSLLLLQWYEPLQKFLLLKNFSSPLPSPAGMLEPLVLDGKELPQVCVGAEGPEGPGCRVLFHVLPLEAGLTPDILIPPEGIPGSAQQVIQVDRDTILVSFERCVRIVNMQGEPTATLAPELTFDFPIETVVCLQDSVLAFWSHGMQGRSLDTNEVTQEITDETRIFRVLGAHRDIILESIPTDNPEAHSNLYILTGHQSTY
Chain of CAMK2B (Q13554 whole entry): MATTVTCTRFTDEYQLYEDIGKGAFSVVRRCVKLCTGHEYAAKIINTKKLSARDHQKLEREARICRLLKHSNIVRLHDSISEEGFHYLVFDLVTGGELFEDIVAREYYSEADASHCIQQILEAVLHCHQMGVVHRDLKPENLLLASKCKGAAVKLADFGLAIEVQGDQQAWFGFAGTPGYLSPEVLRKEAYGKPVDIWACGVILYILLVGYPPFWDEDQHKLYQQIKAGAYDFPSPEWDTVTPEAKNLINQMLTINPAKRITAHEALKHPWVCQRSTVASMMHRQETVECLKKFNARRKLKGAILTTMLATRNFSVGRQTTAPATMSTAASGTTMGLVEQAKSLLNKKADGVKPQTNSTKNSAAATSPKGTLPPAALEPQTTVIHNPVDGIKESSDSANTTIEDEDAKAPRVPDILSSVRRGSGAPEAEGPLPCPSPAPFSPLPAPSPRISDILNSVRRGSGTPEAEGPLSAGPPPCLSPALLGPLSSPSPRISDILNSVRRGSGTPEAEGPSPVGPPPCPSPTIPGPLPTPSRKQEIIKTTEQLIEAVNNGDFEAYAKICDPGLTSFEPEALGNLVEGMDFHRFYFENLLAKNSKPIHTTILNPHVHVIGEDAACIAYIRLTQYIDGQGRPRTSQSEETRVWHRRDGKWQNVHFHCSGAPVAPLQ
Chain of GSK3B (P49841 whole entry): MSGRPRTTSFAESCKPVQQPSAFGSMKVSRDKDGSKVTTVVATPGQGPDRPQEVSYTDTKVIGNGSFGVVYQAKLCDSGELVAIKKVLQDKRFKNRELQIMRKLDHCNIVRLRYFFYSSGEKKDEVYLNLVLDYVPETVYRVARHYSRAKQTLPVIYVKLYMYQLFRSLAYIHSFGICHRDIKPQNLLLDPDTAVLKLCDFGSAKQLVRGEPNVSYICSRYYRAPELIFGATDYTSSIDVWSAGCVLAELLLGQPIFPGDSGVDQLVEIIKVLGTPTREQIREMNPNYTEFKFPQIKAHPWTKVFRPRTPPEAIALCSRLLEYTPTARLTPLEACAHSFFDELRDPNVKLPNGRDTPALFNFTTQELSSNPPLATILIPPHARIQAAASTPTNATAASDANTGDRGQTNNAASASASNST
Chain of SIK2 (Q9H0K1 whole entry): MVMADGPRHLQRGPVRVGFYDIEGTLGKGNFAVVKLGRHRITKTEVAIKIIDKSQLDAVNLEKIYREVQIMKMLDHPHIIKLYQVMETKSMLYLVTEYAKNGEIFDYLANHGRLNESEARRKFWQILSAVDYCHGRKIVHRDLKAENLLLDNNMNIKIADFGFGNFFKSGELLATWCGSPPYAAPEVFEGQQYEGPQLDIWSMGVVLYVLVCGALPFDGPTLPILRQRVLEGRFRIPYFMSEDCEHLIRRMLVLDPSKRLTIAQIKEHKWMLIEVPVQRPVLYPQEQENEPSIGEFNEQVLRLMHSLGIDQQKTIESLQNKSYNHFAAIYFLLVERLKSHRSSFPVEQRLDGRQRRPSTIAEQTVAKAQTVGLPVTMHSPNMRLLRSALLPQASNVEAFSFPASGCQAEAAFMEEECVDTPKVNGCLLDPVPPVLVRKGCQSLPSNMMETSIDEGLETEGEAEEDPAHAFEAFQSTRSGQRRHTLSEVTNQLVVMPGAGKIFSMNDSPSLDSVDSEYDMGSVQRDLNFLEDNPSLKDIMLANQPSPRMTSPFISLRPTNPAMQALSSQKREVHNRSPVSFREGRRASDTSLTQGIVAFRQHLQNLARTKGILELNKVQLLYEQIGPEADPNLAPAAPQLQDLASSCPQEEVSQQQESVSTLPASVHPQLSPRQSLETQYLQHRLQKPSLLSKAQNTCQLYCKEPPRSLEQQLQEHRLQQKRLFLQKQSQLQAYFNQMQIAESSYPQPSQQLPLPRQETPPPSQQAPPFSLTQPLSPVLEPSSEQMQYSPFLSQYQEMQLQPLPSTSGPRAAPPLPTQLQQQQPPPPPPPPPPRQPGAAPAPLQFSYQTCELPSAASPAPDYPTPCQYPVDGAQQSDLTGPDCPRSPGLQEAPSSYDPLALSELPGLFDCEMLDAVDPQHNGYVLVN

## COc1ccccc1-c1n[nH]c2nc(N[C@H]3CC[C@H](NS(=O)(=O)CCC(F)(F)F)CC3)nc(OC)c12 [compound 31, 3,3,3-Trifluoro-N-(trans-4-((4-methoxy-3-(2-methoxyphenyl)-1H-pyrazolo[3,4-d]pyrimidin-6-yl)amino)cyclohexyl)propane-1-sulfonamide]
CDC7
  IC50: ≥ 20 µM
PTK2
  IC50: ≥ 20 µM
PRKCQ
  IC50: ≥ 20 µM
PRKCI
  IC50: ≥ 20 µM
TTK
  IC50: ≥ 20 µM
BRSK2
  IC50: ≥ 20 µM
CDK9
  IC50: 3.6 µM
TNIK
  IC50: ≥ 20 µM
RIPK2
  IC50: ≥ 20 µM
MKNK1
  IC50: ≥ 20 µM
MAP4K2
  IC50: ≥ 20 µM
MAPKAPK3
  IC50: ≥ 20 µM
LIMK1
  IC50: ≥ 20 µM
RPS6KA3
  IC50: ≥ 20 µM
SIK2
  IC50: ≥ 20 µM
CAMK2B
  IC50: ≥ 20 µM
FRK
  IC50: ≥ 20 µM
GSK3B
  IC50: ≥ 20 µM
ADCK1
  IC50: ≥ 20 µM
CSNK2A1
  IC50: ≥ 20 µM
TESK2
  IC50: ≥ 20 µM
